Assay results taken from patent publication US11299467B2 (Antabio SAS, priority 2017, dated 2022).
Like-named read-outs stand apart in the source and are kept apart here.

Legend:
NDM-1 = NDM-1 (Klebsiella pneumoniae, UniProt C7C422); assay: In vitro enzyme inhibition assay, purified NDM-1 (imipenem hydrolysis, UV 299 nm); assay type: biochemical
Procedure: (§1) Enzyme inhibition assays were performed using purified MBL enzymes (NDM-1; VIM-1; VIM-2; IMP-1) in 10 mM HEPES buffer pH 7.5 in 96-well microtiter plates. Imipenem (300 μM) was used as substrate and its hydrolysis was followed at UV 299 nm during 10 mn every 30 seconds using a Perkin Elmer Envision UV fluorescence plate reader.
(§2) Mean Ki values from multiple experiments are presented below.
(§3) Studies were undertaken to compare the compounds of the invention with structurally similar compounds (“Comp. x”). Experiments were conducted as described above.

[1] = Plasma stability of test compounds in human plasma; assay type: in vitro ADME; settings: 1 μM, 37° C.
Procedure: [table] Test compound and QC compound were incubated at a final concentration of 1 μM in plasma at 37° C. in shaker water bath with gentle shaking. At predetermined time points, reaction was terminated with 200 μL of acetonitrile containing internal standard and centrifuged at 4000×RCF, 4° C. for 20 minutes. Supernatant was separated and analyzed by LC-MS/MS. The following equation was used to determine the percentage remaining of test/QC compound following the procedure above: […]

VIM-2 = VIM-2 (Escherichia coli, UniProt Q5U7L7); assay: In vitro enzyme inhibition assay, purified VIM-2 (imipenem hydrolysis, UV 299 nm); assay type: biochemical
Procedure: as §1, §2, §3

VIM-1 = VIM-1 (Pseudomonas aeruginosa, UniProt A0A0F7KYQ8); assay: In vitro enzyme inhibition assay, purified VIM-1 (imipenem hydrolysis, UV 299 nm); assay type: biochemical
Procedure: as §1, §2, §3

IMP-1 = IMP-1 (Serratia marcescens, UniProt P52699); assay: In vitro enzyme inhibition assay, purified IMP-1 (imipenem hydrolysis, UV 299 nm); assay type: biochemical
Procedure: as §1, §2, §3

[2] = comparative study bands, read-out: Ki NDM-1 (comparative study)
[3] = comparative study bands, read-out: Ki VIM-2 (comparative study)
[4] = comparative study bands, read-out: Ki VIM-1 (comparative study)
[5] = comparative study bands, read-out: Ki IMP-1 (comparative study)
[6] = mean Ki from multiple experiments, imipenem 300 μM, Cheng-Prusoff from IC50, read-out: Ki NDM-1
[7] = mean Ki from multiple experiments, imipenem 300 μM, Cheng-Prusoff from IC50, read-out: Ki VIM-2
[8] = mean Ki from multiple experiments, imipenem 300 μM, Cheng-Prusoff from IC50, read-out: Ki VIM-1
[9] = mean Ki from multiple experiments, imipenem 300 μM, Cheng-Prusoff from IC50, read-out: Ki IMP-1

Chain of IMP-1 (P52699 19-246, looked up, species assumed): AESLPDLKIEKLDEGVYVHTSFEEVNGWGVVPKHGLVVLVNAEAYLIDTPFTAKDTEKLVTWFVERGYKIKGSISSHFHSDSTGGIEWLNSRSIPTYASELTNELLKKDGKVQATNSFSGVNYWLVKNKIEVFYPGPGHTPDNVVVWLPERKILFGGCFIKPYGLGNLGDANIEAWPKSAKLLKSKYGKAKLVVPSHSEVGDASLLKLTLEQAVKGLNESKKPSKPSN
Chain of NDM-1 (C7C422 29-270, looked up): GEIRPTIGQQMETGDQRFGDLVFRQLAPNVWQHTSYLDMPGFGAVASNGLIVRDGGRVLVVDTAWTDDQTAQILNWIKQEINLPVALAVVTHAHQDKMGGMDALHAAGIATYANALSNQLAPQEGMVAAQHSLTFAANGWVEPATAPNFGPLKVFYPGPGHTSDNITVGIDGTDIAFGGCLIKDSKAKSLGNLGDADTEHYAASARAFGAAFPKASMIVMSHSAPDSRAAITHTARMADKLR

| Compound | Ki (NDM-1; [2]) [nM] | Stability in human plasma, % remaining ([1]; after 5 hours) [% remaining after 5 hours] | Ki (VIM-2; [3]) [nM] | Ki (VIM-1; [4]) [nM] | Ki (IMP-1; [5]) [nM] | Stability in human plasma, % remaining ([1]; after 2 hours) [% remaining after 2 hours] | Ki (NDM-1; [6]) [nM] | Ki (VIM-2; [7]) [nM] | Ki (VIM-1; [8]) [nM] | Ki (IMP-1; [9]) [nM] |
| --- | --- | --- | --- | --- | --- | --- | --- | --- | --- | --- |
| NCC(=O)Nc1c(F)cc(S(=O)(=O)Nc2scnc2C(=O)O)cc1F [Comp. B, reference compound] | < 30 | 0 | 100 to 150 | 300 to 500 | 600 to 5000 | – | – | – | – | – |
| COc1cc(S(=O)(=O)Nc2scnc2C(=O)O)ccc1NC(=O)CN [Comp. E, reference compound] | 100 to 300 | – | – | 300 to 500 | 600 to 5000 | 29 | – | – | – | – |
| N#Cc1cc(S(=O)(=O)Nc2scnc2C(=O)O)ccc1NC(=O)CNC(=N)N [Example 5, 5-[[3-cyano-4-[(2-guanidinoacetyl)amino]phenyl]sulfonylamino]thiazole-4-carboxylic acid] | 30 to 100 | – | 20 to 50 | 150 to 300 | 150 to 600 | – | 50 to 200 | 20 to 50 | < 200 | < 500 |
| N=C(N)NCC(=O)Nc1cc(F)c(S(=O)(=O)Nc2scnc2C(=O)O)cc1F [Example 9, 5-[[2,5-difluoro-4-[(2-guanidinoacetyl)amino]phenyl]sulfonylamino]thiazole-4-carboxylic acid] | – | – | – | – | – | – | 50 to 200 | < 20 | 200 to 500 | 1000 to 10000 |
| O=C(CNC1=NCCN1)Nc1cc(F)c(S(=O)(=O)Nc2scnc2C(=O)O)cc1F [Example 10, 5-[[4-[[2-(4,5-dihydro-1H-imidazol-2-ylamino)acetyl]amino]-2,5-difluoro-phenyl]sulfonylamino]thiazole-4-carboxylic acid] | – | – | – | – | – | – | < 50 | < 20 | < 200 | 500 to 1000 |
| N=C(N)CC(=O)Nc1c(F)cc(S(=O)(=O)Nc2scnc2C(=O)O)cc1F [Example 13, 5-[[4-[(3-amino-3-imino-propanoyl)amino]-3,5-difluoro-phenyl]sulfonylamino]thiazole-4-carboxylic acid] | – | – | – | – | – | – | < 50 | 50 to 150 | < 200 | 500 to 1000 |
| N=C(N)NCC(=O)Nc1ccc(S(=O)(=O)Nc2scnc2C(=O)O)cc1Cl [Example 17, 5-[[3-chloro-4-[(2-guanidinoacetyl)amino]phenyl]sulfonylamino]thiazole-4-carboxylic acid] | 30 to 100 | – | < 20 | < 150 | < 150 | – | 50 to 200 | < 20 | < 200 | < 500 |
| N=C(N)NCC(=O)Nc1ccc(S(=O)(=O)Nc2scnc2C(=O)O)cc1OC(F)(F)F [Example 18, 5-[[4-[(2-guanidinoacetyl)amino]-3-(trifluoromethoxy)phenyl]sulfonylamino] thiazole-4-carboxylic acid] | 30 to 100 | – | < 20 | < 150 | < 150 | – | 50 to 200 | < 20 | < 200 | < 500 |
| N=C(N)NCCC(=O)Nc1ccc(S(=O)(=O)Nc2scnc2C(=O)O)cc1F [Example 19, 5-[[3-fluoro-4-(3-guanidinopropanoylamino)phenyl]sulfon-ylamino]thiazole-4-carboxylic acid] | – | – | – | – | – | – | 50 to 200 | 20 to 50 | 200 to 500 | 1000 to 10000 |
| CNC(=N)CC(=O)Nc1ccc(S(=O)(=O)Nc2scnc2C(=O)O)cc1F [Example 22, 5-[[3-fluoro-4-[[3-imino-3-(methylamino)propanoyl]amino]phenyl]sulfonylamino]thiazole-4-carboxylic acid] | – | – | – | – | – | – | < 50 | 50 to 150 | 200 to 500 | 1000 to 10000 |
| N=C(N)NCC(=O)Nc1ncc(S(=O)(=O)Nc2scnc2C(=O)O)s1 [Example 23, 5-[[2-[(2-guanidinoacetyl)amino]thiazol-5-yl]sulfonylamino]thiazole-4-carboxylic acid] | – | – | – | – | – | – | < 50 | 20 to 50 | < 200 | 1000 to 10000 |
| N=C(N)NCCOC(=O)Nc1ccc(S(=O)(=O)Nc2scnc2C(=O)O)cc1F [Example 27, 5-[[3-fluoro-4-(2-guanidinoethoxycarbonylamino)phenyl]sulfonylamino]thiazole-4-carboxylic acid] | – | – | – | – | – | – | < 50 | < 20 | < 200 | 500 to 1000 |
